# Test results as given in PMC5053523, “In Vitro Antibacterial Activity of Rhodanine Derivatives against Pathogenic Clinical Isolates” (PLoS ONE, 2016).
# Like-named read-outs stand apart in the source and are kept apart here.
# Key:
# [1] = tested on: Mycobacterium smegmatis; experiment: Broth microdilution MIC/MBC, Mycobacterium smegmatis; assay type: cell-based; details: Mycolicibacterium smegmatis, ATCC14468, M. Smegmatis ATCC 14468
# [2] = tested on: MRSA USA300; experiment: MIC against MRSA USA300 with and without 4% human serum albumin; assay type: cell-based, Staphylococcus aureus; details: Staphylococcus aureus, read-out: MIC against MRSA USA300
# Method: The minimum inhibitory concentration (MIC) and the minimum bactericidal concentration (MBC) of rhodanine compounds 1 to 7 were determined against various Gram-positive and Gram-negative pathogens (S1 Table) following the guidelines of the Clinical and Laboratory Standards Institute (CLSI)[4]. The broth microdilution technique was used, followed by subculturing on agar plates that were rhodanine—free. […] The MICs reported represent the lowest concentration of each compound necessary to inhibit bacterial growth and the MBCs represent the lowest concentration required to reduce the initial bacterial inoculum by ≥ 99.9%.
# The antimicrobial activity of rhodanine compounds in the presence of 4% human serum albumin (HSA) was tested against MRSA USA300. The MICs of rhodanine compounds and control antibiotics (vancomycin and daptomycin) were tested as described in the methods above using tryptic soy broth spiked with 4% HSA. We also synthesized and tested three more compounds, ethyl ester and amide of rhodanine 2 (Rh 8 and Rh 10, respectively) and ethyl ester of rhodanine 3 (Rh 9) to determine the influence of a carboxyl group modification toward anti-MRSA activity and human serum albumin (HSA) binding.
# [3] = tested on: Acinetobacter baumannii; experiment: MIC with/without sub-MIC colistin, Acinetobacter baumannii; assay type: cell-based
# Method: (§1) The MIC of the rhodanines and control antibiotics, in the presence of a sub-inhibitory concentration of colistin or polymixin B nonapeptide (PMBN), against Gram-negative bacteria was evaluated as described before. The antibacterial activity of the rhodanines was further investigated against E. coli SM1411Δ acrAB, a strain that is deficient in the multidrug-resistant AcrAB efflux pump, as described before.
# [4] = tested on: Escherichia coli O157:H7; experiment: MIC with/without sub-MIC colistin, Escherichia coli O157:H7; assay type: cell-based
# Method: as §1
# [5] = tested on: Salmonella Typhimurium; experiment: MIC with/without sub-MIC colistin, Salmonella Typhimurium; assay type: cell-based
# Method: as §1
# [6] = tested on: Klebsiella pneumoniae; experiment: MIC with/without sub-MIC colistin, Klebsiella pneumoniae; assay type: cell-based
# Method: as §1
# [7] = tested on: Pseudomonas aeruginosa; experiment: MIC with/without sub-MIC colistin, Pseudomonas aeruginosa; assay type: cell-based
# Method: as §1
# [8] = tested on: Acinetobacter baumannii; experiment: MIC with/without PMBN, Acinetobacter baumannii; assay type: cell-based
# Method: as §1
# [9] = tested on: Escherichia coli O157:H7; experiment: MIC with/without PMBN, Escherichia coli O157:H7; assay type: cell-based
# Method: as §1
# [10] = tested on: Salmonella Typhimurium; experiment: MIC with/without PMBN, Salmonella Typhimurium; assay type: cell-based
# Method: as §1
# [11] = tested on: Klebsiella pneumoniae; experiment: MIC with/without PMBN, Klebsiella pneumoniae; assay type: cell-based
# Method: as §1
# [12] = tested on: Pseudomonas aeruginosa; experiment: MIC with/without PMBN, Pseudomonas aeruginosa; assay type: cell-based
# Method: as §1
# [13] = tested on: Escherichia coli Δ acrAB; experiment: MIC against E. coli 1411 and AcrAB efflux pump deficient E. coli SM1411Δ acrAB; assay type: cell-based
# Method: as §1
# [14] = Acinetobacter baumannii ATCC BAA747, colistin (+) […], read-out: MIC
# [15] = Acinetobacter baumannii ATCC BAA19606, colistin (+) […], read-out: MIC
# [16] = Acinetobacter baumannii, ATCCBAA747
# [17] = Acinetobacter baumannii, ATCCBAA19606
# [18] = Escherichia coli O157:H7 ATCC 35150, colistin (+) […], read-out: MIC
# [19] = Escherichia coli O157:H7 ATCC 700728, colistin (+) […], read-out: MIC
# [20] = Salmonella Typhimurium ATCC 700720, colistin (+) […], read-out: MIC
# [21] = Salmonella enterica, ATCC 700720 / TYPHIMURIUM
# [22] = Klebsiella pneumoniae ATCC BAA 2146, colistin (+) […]
# [23] = Pseudomonas aeruginosa ATCC 921, colistin (+) […], read-out: MIC
# [24] = Pseudomonas aeruginosa, ATCC921
# [25] = Acinetobacter baumannii ATCC BAA747, PMBN (+) 4 μg/mL, read-out: MIC
# [26] = Acinetobacter baumannii ATCC BAA19606, PMBN (+) 4 μg/mL, read-out: MIC
# [27] = Escherichia coli O157:H7 ATCC 35150, PMBN (+) 4 μg/mL, read-out: MIC
# [28] = Escherichia coli O157:H7 ATCC 700728, PMBN (+) 4 μg/mL, read-out: MIC
# [29] = Salmonella Typhimurium ATCC 700720, PMBN (+) 4 μg/mL, read-out: MIC
# [30] = Klebsiella pneumoniae ATCC BAA 1706, PMBN (+) 4 μg/mL
# [31] = Klebsiella pneumoniae ATCC BAA 2146, PMBN (+) 4 μg/mL
# [32] = Pseudomonas aeruginosa ATCC 9721, PMBN (+) 4 μg/mL, read-out: MIC
# [33] = Pseudomonas aeruginosa, ATCC9721
# [34] = E.coli 1411 SM (Δ acrAB, AcrAB efflux pump deficient)
SMILES,"MIC [3, 14]","MIC [3, 15]","MIC [3, 16]","MIC [3, 17]","MIC [4, 18]","MIC [4, 19]","MIC [5, 20]","MIC [5, 21]","MIC [6, 22]","MIC ([6]; Klebsiella pneumoniae, BAA2146)","MIC [7, 23]","MIC [7, 24]","MIC [8, 25]","MIC [8, 26]","MIC [8, 16]","MIC [8, 17]","MIC [9, 27]","MIC [9, 28]","MIC [10, 29]","MIC [10, 21]",also measured
"CO[C@H]1/C=C/O[C@@]2(C)Oc3c(C)c(O)c4c(O)c(c(/C=N/N5CCN(C)CC5)c(O)c4c3C2=O)NC(=O)/C(C)=C\C=C\[C@H](C)[C@H](O)[C@@H](C)[C@@H](O)[C@@H](C)[C@H](OC(C)=O)[C@@H]1C [Rifampicin, rifampicin, reference compound]",–,–,–,–,–,–,–,–,–,–,–,–,–,–,–,–,–,–,–,–,MBC ([1]; read-out: MBC): > 64 µM; MIC ([1]; read-out: MIC): 32 µM
"CCCCCCCCCC(=O)N[C@@H](Cc1c[nH]c2ccccc12)C(=O)N[C@H](CC(N)=O)C(=O)N[C@@H](CC(=O)O)C(=O)N[C@@H]1C(=O)NCC(=O)N[C@@H](CCCN)C(=O)N[C@@H](CC(=O)O)C(=O)N[C@H](C)C(=O)N[C@@H](CC(=O)O)C(=O)NCC(=O)N[C@H](CO)C(=O)N[C@@H]([C@H](C)CC(=O)O)C(=O)N[C@@H](CC(=O)c2ccccc2N)C(=O)O[C@@H]1C [Daptomycin, reference compound]",>64 µM,>64 µM,> 128 µM,> 128 µM,>64 µM,>64 µM,>64 µM,> 128 µM,>64 µM,> 128 µM,>64 µM,> 128 µM,>64 µM,>64 µM,> 128 µM,> 128 µM,>256 µM,>64 µM,>128 µM,> 128 µM,"MIC ([2]; 24 h, Media TSB + 4% HSA): 64 µM; MIC ([2]; Media TSB): 4 µM; MIC ([4]; ATCC35150, Escherichia coli O157:H7 ATCC 35150, colistin (-), read-out: MIC): > 128 µM; MIC ([4]; ATCC700728, Escherichia coli O157:H7 ATCC 700728, colistin (-), read-out: MIC): > 128 µM; MIC ([9]; ATCC35150, Escherichia coli O157:H7 ATCC 35150, PMBN (-), read-out: MIC): > 256 µM; MIC ([9]; ATCC700728, Escherichia coli O157:H7 ATCC 700728, PMBN (-), read-out: MIC): > 128 µM; MIC [11, 30]: >64 µM; MIC [11, 31]: >64 µM; MIC ([11]; Klebsiella pneumoniae, BAA1706): > 128 µM; MIC ([11]; Klebsiella pneumoniae, BAA2146): > 128 µM; MIC [12, 32]: >64 µM; MIC [12, 33]: > 128 µM; MIC ([13]; E.coli 1411): > 64 µM; MIC [13, 34]: > 64 µM"
"CC(=O)O[C@H]1C[C@@]2(C)[C@@H](C[C@@H](O)[C@H]3[C@@]4(C)CC[C@@H](O)[C@@H](C)[C@@H]4CC[C@@]32C)/C1=C(\CCC=C(C)C)C(=O)O [Fusidic acid, fusidic acid, reference compound]",1 µM,≤0.5 µM,> 128 µM,128 µM,≤0.5 µM,≤0.5 µM,64 µM,> 128 µM,>64 µM,> 128 µM,>64 µM,> 128 µM,2 µM,2 µM,> 128 µM,128 µM,4 µM,32 µM,64 µM,> 128 µM,"MIC ([4]; Escherichia coli, ATCC35150): > 128 µM; MIC ([4]; Escherichia coli, ATCC700728): > 128 µM; MIC ([9]; Escherichia coli, ATCC35150): > 256 µM; MIC ([9]; Escherichia coli, ATCC700728): > 128 µM; MIC [11, 30]: 16 µM; MIC [11, 31]: >64 µM; MIC ([11]; Klebsiella pneumoniae, BAA1706): > 128 µM; MIC ([11]; Klebsiella pneumoniae, BAA2146): > 128 µM; MIC [12, 32]: 4 µM; MIC [12, 33]: > 128 µM; MIC ([13]; E.coli 1411): > 64 µM; MIC [13, 34]: 4 µM"
